From US4680285A, “Treatment of malignant tumors with 2-(β-D-ribofuranosylthiazole-4-carboxamide related compounds” (priority 1985, dated 1987)
Entries after “also recorded” stand apart in the source; their conditions may differ. Where two headings read alike, the source gives them in different places.

Assays:
viruses = settings: cited from earlier work
malignant tumors [1] = settings: known from literature; cited from earlier work
L-1210 lymphoid leukemia = L-1210 lymphoid leukemia in vivo, mean survival (Example 11); set-up: species or system CD2 F1 male mice; settings: for Percent Treated Animals Control Animals / Treated Group Survival Time (mean): saline
From the text: For Example 9a and 9b, CD2 F1 male mice were used and challenged with L-1210 lymphoid leukemia. […] The test period was for thirty days. Test results are expressed as T/C as per Example 5.
In both the control groups and the drug treated groups in Examples 9a and 9b, the test animals were inoculated on day zero IP with 10^6 seed cells of L-1210 lymphoid leukemia. For Example 9a, drug treatment was started on day one and compound 1 given once daily for nine days. Day five was utilized as the cutoff date for death attributable to toxicity of the drug. […] Efficacy of treatment was determined by comparing mean survival time of drug treated animals with mean survival time of the control animals and is expressed as percentage increase of treated animals/control animals (T/C) as per Example 5.
The compound test dosage levels are as noted in tables 7a and 7b below for Example 11a and 11b respectively. In these examples, thirty-six control animals were used and six test animals each at the drug dose levels as is shown in tables 7a and 7b. Saline was used as the drug vehicle.
For both the control groups and the drug test groups, tumors were induced by IP inoculation of tumor seed cells on day zero followed by initiation of drug treatment on day one wherein compound 3 was given once daily for 5 days. Test results are expressed as T/C as per example 5.

malignant tumors [2] = test: antitumor activity in vivo (general statements); settings: summary statements
[3] = tested on: type 1 herpes simplex virus; settings: cited from earlier work
[4] = tested on: P388 lymphocytic leukemia; test: P388 lymphocytic leukemia in vivo, median survival, 30-day test (Examples 7 and 8); set-up: species or system CD2 F1 female mice; settings: for Percent Treated Animals/Control Animals / Treated Group Survival Time (median): Ex. 7a/8, saline with tween/80; for Treated Group Survival Time (median): control 12.6
Procedure: For examples 7 and 8, CD2 F1 female mice were used and challenged with P388 lymphocytic leukemia tumors. […] The test period was for thirty days in both Examples 7 and 8.
For Examples 7 and 8, as well as Examples 9 and 10 below, any animal of the drug treated group which survived beyond the end of the testing period was then evaluated and placed in one of three groups. The first group was designated as cured, meaning the animal was successfully cured of the tumor. The second group designation was no-takes, meaning survival of the animal was considered to be due to failure of tumor implant. The remaining group was designated as tumor survivors meaning the animals lived beyond the test cut-off date but could not be classified as either cured or no-takes.
For both Examples 7 and 8, thirty animals were used as the control group and six animals each were used at each dose level indicated in tables 3 and 4 below in the drug treated groups. In both Examples 7 and 8, for both the control group and the drug treated groups, tumors were induced by IP inoculation of tumor seed cells on day zero followed by initiation of drug treatment on day one. For both Examples 7a and 8, saline with tween/80 was used as the drug vehicle. For Examples 7b and 7c, water was used as the drug vehicle.
In both the control group and the drug treated group in Examples 7 and 8, the test animals were inoculated on day zero IP with 10^6 seed cells of P388 lymphocytic leukemia. In both Examples 7 and 8, treatment of the drug group was started on day one and the drug was given IP once daily for nine days. Day six was utilized as the cut-off data for death attributable to toxicity of the drug. […] Efficacy of treatment was determined by comparing median survival time of the drug treated animals compared to median survival time of the control animals, and is expressed as percentage increase of treated animals/control animals (T/C) as per Example 5.
In this example drug treated animals were injected IP with the dose level noted in Table 3 below. Six animals were treated at each dose level. No control animals survived beyond day 18 with a median death date of day 12.6.
This examples was performed as per Example 7a at dose levels as noted in table 3b below. A survivor at both the 700 and 800 mg/Kg level was judged as cured. No controls survived beyond day 12 and the mean death day of the control group was day 11.
This example was run as per Example 7a above at dose levels noted in Table 3c below. All controls were dead by day 14 with a mean death day of day 11.9. At the 500 mg/Kg level, one animal was judged as a cure.
Compound 2, 2-(2,3,5-tri-O-acetyl-β-D-ribofuranosyl)thiazole-4-carboxamide was tested as per Example 7a above at dose levels noted in Table 4 below. No controls survived beyond day 18 with an average death date of day 12.6.

type 3 rhinovirus = settings: cited from earlier work
[5] = tested on: type 3 parainfluenza virus; settings: cited from earlier work
[6] = tested on: P388 lymphocytic leukemia; format: in vivo, CD2 F1 female mice; settings: for Percent Treated Animals/Control Animals / Treated Group Survival Time (mean): nine days; for Treated Group Survival Time (mean): control 10.2
From the text: Compound 2, 2-(2,3,5-tri-O-acetyl-β-D-ribofuranosyl)thiazole-4-carboxamide was screened in a manner similar to that shown in Example 5, however, the tumor system used as the test tumor was P388 lymphocytic leukemia. 10^6 seed cells were used to initiate the tumor in both the control group and the drug treated group of animals. The same strain of mice was used except female mice were substituted for males. Test results were based on mean survival time and are expressed as T/C percentages (treated animals/control animals) as per Example 5.
In the drug treated animals, treatment was initiated one day after tumor inoculation and the drug was given at the dose levels noted below in table 2. Drug treatment was for nine days and drug toxicity, as in Example 5, was measured on day six.
Average day of death for the control group was 10.2 days whereas at the lowest level of drug treatment the treated animals survived for more than 15 days. As with Example 5, 125% increase in longevity of treated animals over control animals was taken as indicative of positive drug response.

virus = settings: cited from earlier work

NC(=O)c1ncn([C@@H]2O[C@H](CO)[C@@H](O)[C@H]2O)n1 [RIBAVIRIN, reference compound]
in vitro antiviral activity (viruses): active in vitro antiviral agent | antitumor activity (malignant tumors [1]): no significant antitumor activity

NC(=O)c1csc([C@@H]2O[C@H](COP(=O)(O)O)[C@@H](O)[C@H]2O)n1 [Compound 3, 2-(5-O-Phosphoryl-β-D-Ribofuranosyl)thiazole-4 Carboxamide]
Percent Treated Animals Control Animals (L-1210 lymphoid leukemia; Ex. 11a, 50 mg/Kg once daily x5): 136% | Treated Group Survival Time (mean) (L-1210 lymphoid leukemia; Ex. 11a, 50 mg/Kg once daily x5, control 8.3): 11.3 days | Percent Treated Animals Control Animals (L-1210 lymphoid leukemia; Ex. 11a, 100 mg/Kg once daily x5): 186% | Treated Group Survival Time (mean) (L-1210 lymphoid leukemia; Ex. 11a, 100 mg/Kg once daily x5, control 8.3): 15.5 days | Percent Treated Animals Control Animals (L-1210 lymphoid leukemia; Ex. 11a, 200 mg/Kg once daily x5): 259% | Treated Group Survival Time (mean) (L-1210 lymphoid leukemia; Ex. 11a, 200 mg/Kg once daily x5, control 8.3): 21.5 days | Percent Treated Animals Control Animals (L-1210 lymphoid leukemia; Ex. 11a, 400 mg/Kg once daily x5): 183% | Treated Group Survival Time (mean) (L-1210 lymphoid leukemia; Ex. 11a, 400 mg/Kg once daily x5, control 8.3): 15.2 days | Percent Treated Animals Control Animals (L-1210 lymphoid leukemia; Ex. 11a, 800 mg/Kg once daily x5): 196% | Treated Group Survival Time (mean) (L-1210 lymphoid leukemia; Ex. 11a, 800 mg/Kg once daily x5, control 8.3): 16.3 days | Percent Treated Animals Control Animals (L-1210 lymphoid leukemia; Ex. 11b, 50 mg/Kg once daily x5): 128% | Treated Group Survival Time (mean) (L-1210 lymphoid leukemia; Ex. 11b, 50 mg/Kg once daily x5, control 10.1): 13.0 days | Percent Treated Animals Control Animals (L-1210 lymphoid leukemia; Ex. 11b, 100 mg/Kg once daily x5): 121% | Treated Group Survival Time (mean) (L-1210 lymphoid leukemia; Ex. 11b, 100 mg/Kg once daily x5, control 10.1): 12.3 days | Percent Treated Animals Control Animals (L-1210 lymphoid leukemia; Ex. 11b, 200 mg/Kg once daily x5): 145% | Treated Group Survival Time (mean) (L-1210 lymphoid leukemia; Ex. 11b, 200 mg/Kg once daily x5, control 10.1): 14.7 days | Percent Treated Animals Control Animals (L-1210 lymphoid leukemia; Ex. 11b, 400 mg/Kg once daily x5): 155% | Treated Group Survival Time (mean) (L-1210 lymphoid leukemia; Ex. 11b, 400 mg/Kg once daily x5, control 10.1): 15.7 days | Percent Treated Animals Control Animals (L-1210 lymphoid leukemia; Ex. 11b, 600 mg/Kg once daily x5): 160% | Treated Group Survival Time (mean) (L-1210 lymphoid leukemia; Ex. 11b, 600 mg/Kg once daily x5, control 10.1): 16.2 days | activity against L-1210 lymphoid leukemia (L-1210 lymphoid leukemia; Examples 11a and 11b): active against L-1210 lymphoid leukemia | drug toxicity (L-1210 lymphoid leukemia; Examples 11a and 11b, 50-800 mg/Kg): No drug toxicity was noted | antitumor activity (malignant tumors [2]): effective in vivo antitumor agents

CC(=O)OC[C@H]1O[C@@H](c2nc(C(N)=O)cs2)[C@H](OC(C)=O)[C@@H]1OC(C)=O [Compound 2, 2-(2,3,5-Tri-O-Acetyl-β-D-Ribofuranosyl)thiazole-4-Carboxamide]
in vitro antiviral activity [3]: only moderate activity | Percent Treated Animals/Control Animals ([4]; 12.5 mg/Kg IP once daily x9): 110% | Treated Group Survival Time (median) ([4]; 12.5 mg/Kg IP once daily x9): 13.7 days | Percent Treated Animals/Control Animals ([4]; 25 mg/Kg IP once daily x9): 113% | Treated Group Survival Time (median) ([4]; 25 mg/Kg IP once daily x9): 14.3 days | Percent Treated Animals/Control Animals ([4]; 50 mg/Kg IP once daily x9): 121% | Treated Group Survival Time (median) ([4]; 50 mg/Kg IP once daily x9): 15.3 days | Percent Treated Animals/Control Animals ([4]; 100 mg/Kg IP once daily x9): 145% | Treated Group Survival Time (median) ([4]; 100 mg/Kg IP once daily x9): 18.3 days | Percent Treated Animals/Control Animals ([4]; 200 mg/Kg IP once daily x9): 150% | Treated Group Survival Time (median) ([4]; 200 mg/Kg IP once daily x9): 19.0 days | Percent Treated Animals/Control Animals ([4]; 400 mg/Kg IP once daily x9): 161% | Treated Group Survival Time (median) ([4]; 400 mg/Kg IP once daily x9): 20.3 days | surviving animals judged as no-take ([4]; Ex. 7a/8, 50 mg/Kg, thirty days): one surviving animal was judged as a no-take | activity against P388 lymphocytic leukemia ([4]; Examples 7 and 8, multiple dose): active antitumor agents; also recorded: active against P388 lymphocytic leukemia | DN 2 (Decision Network) criteria of the National Cancer Institute ([4]; P388): successfully passed | in vitro antiviral activity (type 3 rhinovirus): negative | in vitro antiviral activity [5]: negative | Percent Treated Animals/Control Animals ([6]; 50 mg/Kg IP): 150% | Treated Group Survival Time (mean) ([6]; 50 mg/Kg IP): 15.3 days | Percent Treated Animals/Control Animals ([6]; 100 mg/Kg IP): 176% | Treated Group Survival Time (mean) ([6]; 100 mg/Kg IP): 18.0 days | Percent Treated Animals/Control Animals ([6]; 200 mg/Kg IP): 179% | Treated Group Survival Time (mean) ([6]; 200 mg/Kg IP): 18.3 days | survival of treated animals ([6]; lowest level of drug treatment, control 10.2 days): more than 15 days | number of deaths of test animals vs placebo control animals (virus; in vivo antiviral tests): equal to or exceeded the number of deaths of the placebo control animals | in vivo antiviral activity (virus; in vivo): negative | antitumor activity (malignant tumors [2]): effective antitumor agent when injected intraperitoneally

NC(=O)c1ncn([C@@H]2O[C@H](COP(=O)(O)O)[C@@H](O)[C@H]2O)n1 [RIBAVIRIN 5' monophosphate]
antitumor activity (malignant tumors [1]): inactive as antitumor compounds
